Experimental data published in patent US8138189B2, “Substituted benzene compounds as modulators of the glucocorticoid receptor” (Hoffman-La Roche Inc., priority 2009, dated 2012).

Legend:
[1] = target: T1, full length human recombinant glucocorticoid receptor (Homo sapiens, UniProt P04150); assay: Glucocorticoid Receptor Binding Assay (fluorescence polarization competitor assay, Fluormone GS Far Red tracer)
T1 construct: partially purified full length human recombinant glucocorticoid receptor; purchased Panvera/Invitrogen PV4302
T1 sequence (P04150 1-777): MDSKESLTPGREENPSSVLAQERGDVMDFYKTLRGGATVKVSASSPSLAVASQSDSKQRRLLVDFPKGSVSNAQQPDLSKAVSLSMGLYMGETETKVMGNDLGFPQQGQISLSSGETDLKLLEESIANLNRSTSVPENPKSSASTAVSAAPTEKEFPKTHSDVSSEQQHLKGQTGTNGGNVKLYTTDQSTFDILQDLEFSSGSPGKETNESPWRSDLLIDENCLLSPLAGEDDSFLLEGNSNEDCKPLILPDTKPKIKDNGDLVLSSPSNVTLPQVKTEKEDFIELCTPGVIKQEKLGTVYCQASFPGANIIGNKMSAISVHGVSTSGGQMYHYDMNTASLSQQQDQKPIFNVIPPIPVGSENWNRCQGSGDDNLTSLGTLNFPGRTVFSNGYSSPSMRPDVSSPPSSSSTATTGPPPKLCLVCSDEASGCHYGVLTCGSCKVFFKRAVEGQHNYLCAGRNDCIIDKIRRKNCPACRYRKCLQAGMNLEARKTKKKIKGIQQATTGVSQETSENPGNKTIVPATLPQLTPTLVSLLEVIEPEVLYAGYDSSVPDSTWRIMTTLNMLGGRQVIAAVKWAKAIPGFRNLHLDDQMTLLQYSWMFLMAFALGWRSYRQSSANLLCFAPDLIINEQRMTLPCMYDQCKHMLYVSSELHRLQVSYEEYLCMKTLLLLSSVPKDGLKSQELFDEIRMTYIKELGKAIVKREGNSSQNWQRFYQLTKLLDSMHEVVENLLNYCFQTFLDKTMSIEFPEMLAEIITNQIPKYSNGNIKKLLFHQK
Procedure, shortened: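 Serially diluted compounds competed with the tight-binding far-red fluorescent ligand for recombinant full-length human glucocorticoid receptor plus GR-stabilizing peptide (screening buffer pH 7.4; 3 h, 22 °C, dark). Polarization (610-660 nm) gave IC50 via sigmoidal dose-response fits, and Ki was derived by Cheng-Prusoff from tracer concentration and Kd.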

[2] = system: normal volunteers; conditions: acute; cited from earlier work
[3] = system: Cushing's patients; conditions: chronic; cited from earlier work
[4] = system: ob/ob mice; conditions: cited from earlier work
[5] = system: db/db mice; conditions: cited from earlier work
[6] = system: Hypothalamus-Pituitary gland-Adrenal gland (HPA) axis; conditions: cited from earlier work

SMILES | Ki [1] | other results
COc1cc(C(=O)O)ccc1COc1ccc(C(C)C(O)(c2cnn3ccccc23)C(F)(F)F)c(Cl)c1 (centres unmarked) [Example 129, 4-[3-Chloro-4-(3,3,3-trifluoro-2-hydroxy-1-methyl-2-pyrazolo[1,5-a]pyridin-3-yl-propyl)-phenoxymethyl]-3-methoxy-benzoic acid] | 267 nM | –
C[C@H](c1ccc(Oc2ccc(OCC(=O)O)cc2)cc1Cl)[C@@](O)(c1ccc(=O)n(C)c1)C(F)(F)F [Example 160] | 1.6 nM | –
COC(=O)c1ccc(-c2ccc([C@H](C)[C@](O)(c3ccc(=O)n(C)c3)C(F)(F)F)c(Cl)c2)cc1F [Example 166, 3′-Chloro-3-fluoro-4′-[3,3,3-trifluoro-2-hydroxy-1-methyl-2-(1-methyl-6-oxo-1,6-didydro-pyridin-3-yl)-propyl]-biphenyl-4-carboxylic acid methyl ester] | 6.2 nM | –
C[C@@H](c1ccc(-c2ccc(C(=O)O)c(F)c2)cc1Cl)[C@](O)(c1ccc(=O)n(C)c1)C(F)(F)F [Example 167, 3′-Chloro-3-fluoro-4′-[3,3,3-trifluoro-2-hydroxy-1-methyl-2-(1-methyl-6-oxo-1,6-dihydro-pyridin-3-yl)-propyl]-propylphiphenyl-4-carboxylic acid] | 45.9 nM | –
COC(=O)c1ccc(-c2ccc([C@H](C)[C@](O)(c3ccc(=O)n(C)c3)C(F)(F)F)c(Cl)c2)cc1Cl [Example 168, 3,3′-Dichloro-4′-[3,3,3-trifluoro-2-hydroxy-1-methyl-2-(1-methyl-6-oxo-1,6-dihydro-pyridin-3-yl)-propyl]-propylphiphenyl-4-carboxylic acid methyl ester] | 2.6 nM | –
Cc1cc([C@](O)([C@H](C)c2ccc(Oc3ccc(C(=O)O)c(Cl)c3)cc2Cl)C(F)(F)F)sc1C#N [Example 235, 2-Chloro-4-{3-chloro-4-[2-(5-cyano-4-methyl-thiophen-2-yl)-3,3,3-trifluoro-2-hydroxy-1-methyl-propyl]-phenoxy}-benzoic acid] | 1.8 nM | –
Cc1cc([C@@](O)([C@@H](C)c2ccc(Oc3ccc(C(=O)O)cc3Cl)cc2Cl)C(F)(F)F)cn(C)c1=O [Example 244, 3-Chloro-4-{3-chloro-4-[(1S,2S)-2-(1,5-dimethyl-6-oxo-1,6-dihydro-pyridin-3-yl)-3,3,3-trifluoro-2-hydroxy-1-methyl-propyl]-phenoxy}-benzoic acid] | 601 nM | –
Cc1cc([C@](O)([C@H](C)c2ccc(Oc3ccc(C(=O)O)cc3Cl)cc2Cl)C(F)(F)F)cn(C)c1=O [Example 245, 3-Chloro-4-{3-chloro-4-[(1R,2R)-2-(1,5-dimethyl-6-oxo-1,6-dihydro-pyridin-3-yl)-3,3,3-trifluoro-2-hydroxy-1-methyl-propyl]-phenoxy}-benzoic acid] | 0.4 nM | –
Cc1cc([C@@](O)([C@@H](C)c2ccc(Oc3ccc(C(=O)O)c(F)c3)cc2Cl)C(F)(F)F)cn(C)c1=O [Example 248, 4-{3-Chloro-4-[(1S,2S)-2-(1,5-dimethyl-6-oxo-1,6-dihydro-pyridin-3-yl)-3,3,3-trifluoro-2-hydroxy-1-methyl-propyl]-phenoxy}-2-fluoro-benzoic acid] | 0.5 nM | –
Cc1cc([C@](O)([C@H](C)c2ccc(Oc3ccc(C(=O)O)c(F)c3)cc2Cl)C(F)(F)F)cn(C)c1=O [Example 249, 4-{3-Chloro-4-[(1R,2R)-2-(1,5-dimethyl-6-oxo-1,6-dihydro-pyridin-3-yl)-3,3,3-trifluoro-2-hydroxy-1-methyl-propyl]-phenoxy}-2-fluoro-benzoic acid] | 4.2 nM | –
CC#C[C@]1(O)CC[C@H]2[C@@H]3CCC4=CC(=O)CCC4=C3[C@@H](c3ccc(N(C)C)cc3)C[C@@]21C [RU486/mifepristone, mifepristone] | – | fasting plasma glucose [2]: decrease of fasting plasma glucose; plasmatic HbA1c [3]: decrease of plasmatic HbA1c; fasting plasma glucose [4]: normalizes fasting plasma glucose; activity of gluconeogenic enzymes [5]: normalizes; effect on HPA axis / endogenous corticosteroids circulating in the blood ([6]; feed-back mechanism): increase of endogenous corticosteroids circulating in the blood; adrenal insufficiency symptoms ([6]; long term treatment (up to 1 year)): induces some adrenal insufficiency symptoms

Further lines, with some results ahead:

Ki [1] | SMILES | other results
6.4 nM | COC(=O)c1ccc(COc2ccc(C(C)C(O)(c3ccnc(Cl)c3)C(F)(F)F)c(Cl)c2)nc1 (centres unmarked) [Example 110, 6-{3-Chloro-4-[2-(2-chloro-pyridin-4-yl)-3,3,3-trifluoro-2-hydroxy-1-methyl-propyl]-phenoxymethyl}-nicotinic acid methyl ester] | –
13 nM | CC(c1ccc(OCc2ccc(C(=O)O)cn2)cc1Cl)C(O)(c1ccnc(Cl)c1)C(F)(F)F (centres unmarked) [Example 111, 6-{3-Chloro-4-[2-(2-chloro-pyridin-4-yl)-3,3,3-trifluoro-2-hydroxy-1-methyl-propyl]-phenoxymethyl}-nicotinic acid] | –
9.2 nM | COC(=O)c1cnc(COc2ccc(C(C)C(O)(c3ccnc(Cl)c3)C(F)(F)F)c(Cl)c2)cn1 (centres unmarked) [Example 112, 5-{3-Chloro-4-[2-(2-chloro-pyridin-4-yl)-3,3,3-trifluoro-2-hydroxy-1-methyl-propyl]-phenoxymethyl}-pyrazine-2-carboxylic acid methyl ester] | –
13.6 nM | CC(c1ccc(OCc2cnc(C(=O)O)cn2)cc1Cl)C(O)(c1ccnc(Cl)c1)C(F)(F)F (centres unmarked) [Example 113, 5-{3-Chloro-4-[2-(2-chloro-pyridin-4-yl)-3,3,3-trifluoro-2-hydroxy-1-methyl-propyl]-phenoxymethyl}-pyrazine-2-carboxylic acid] | –
24.2 nM | COC(=O)c1cnc(Oc2ccc(C(C)C(O)(c3ccnc(Cl)c3)C(F)(F)F)c(Cl)c2)cn1 (centres unmarked) [Example 114, 5-{3-Chloro-4-[2-(2-chloro-pyridin-4-yl)-3,3,3-trifluoro-2-hydroxy-1-methyl-propyl]-phenoxy}-pyrazine-2-carboxylic acid methyl ester] | –
96.8 nM | CC(c1ccc(Oc2cnc(C(=O)O)cn2)cc1Cl)C(O)(c1ccnc(Cl)c1)C(F)(F)F (centres unmarked) [Example 115, 5-{3-Chloro-4-[2-(2-chloro-pyridin-4-yl)-3,3,3-trifluoro-2-hydroxy-1-methyl-propyl]-phenoxy}-pyrazine-2-carboxylic acid] | –
40.6 nM | COC(=O)c1cnc(Oc2ccc(C(C)C(O)(c3ccnc(Cl)c3)C(F)(F)F)c(Cl)c2)nc1 (centres unmarked) [Example 116, 2-{3-Chloro-4-[2-(2-chloro-pyridin-4-yl)-3,3,3-trifluoro-2-hydroxy-1-methyl-propyl]-phenoxy}-pyrimidine-5-carboxylic acid methyl ester] | –
111 nM | CC(c1ccc(Oc2ncc(C(=O)O)cn2)cc1Cl)C(O)(c1ccnc(Cl)c1)C(F)(F)F (centres unmarked) [Example 117, 2-{3-Chloro-4-[2-(2-chloro-pyridin-4-yl)-3,3,3-trifluoro-2-hydroxy-1-methyl-propyl]-phenoxy}-pyrimidine-5-carboxylic acid] | –
10.8 nM | COC(=O)c1ccc(Oc2ccc(C(C)C(O)(c3ccnc(Cl)c3)C(F)(F)F)c(Cl)c2)nc1 (centres unmarked) [Example 118, 6-{3-Chloro-4-[2-(2-chloro-pyridin-4-yl)-3,3,3-trifluoro-2-hydroxy-1-methyl-propyl]-phenoxy}-nicotinic acid methyl ester] | –
20.4 nM | CC(c1ccc(Oc2ccc(C(=O)O)cn2)cc1Cl)C(O)(c1ccnc(Cl)c1)C(F)(F)F (centres unmarked) [Example 119, 6-{3-Chloro-4-[2-(2-chloro-pyridin-4-yl)-3,3,3-trifluoro-2-hydroxy-1-methyl-propyl]-phenoxy}-nicotinic acid] | –
437 nM | COc1cc(Oc2ccc(Cl)c(C(C)C(O)(c3ccnc(Cl)c3)C(F)(F)F)c2)ccc1C(=O)O (centres unmarked) [Example 131, 4-{4-Chloro-3-[2-(2-chloro-pyridin-4-yl)-3,3,3-trifluoro-2-hydroxy-1-methyl-propyl]-phenoxy}-2-methoxy-benzoic acid] | –
0.5 nM | Cc1cc([C@@](O)([C@@H](C)c2ccc(Oc3ccc(C(=O)O)cn3)cc2Cl)C(F)(F)F)cn(C)c1=O [Example 246, 6-{3-Chloro-4-[(1S,2S)-2-(1,5-dimethyl-6-oxo-1,6-dihydro-pyridin-3-yl)-3,3,3-trifluoro-2-hydroxy-1-methyl-propyl]-phenoxy}-nicotinic acid] | –
14.8 nM | Cc1cc([C@](O)([C@H](C)c2ccc(Oc3ccc(C(=O)O)cn3)cc2Cl)C(F)(F)F)cn(C)c1=O [Example 247, 6-{3-Chloro-4-[(1R,2R)-2-(1,5-dimethyl-6-oxo-1,6-dihydro-pyridin-3-yl)-3,3,3-trifluoro-2-hydroxy-1-methyl-propyl]-phenoxy}-nicotinic acid] | –
